Holding throughout (assay): NCI tumour cell line growth inhibition, 48 h
Test [1] has as its system DU-145 prostate.
Test [2] relates to HS 578T breast.
Test [3] concerns MDA-MB-231 breast.
For test [4], the system named is NCI/ADR-RES ovarian.
Test [5] relates to MDA-N.

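Cells were grown in 96-well plates and exposed to each compound for 48 hours at five concentrations; endpoints were interpolated linearly between bracketing concentrations, or set to the highest concentration if not reached. Here, GI50 denotes the concentration required for 50% inhibition of growth. At the TGI there is no net growth.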 A value given as a limit tells only on which side of the number the result lay.

On to `O=C(NN1C(=O)CSC12CCCC2)C(O)c1ccccc1` (stereo not given), for which the GI50 in test [1], in test [2] and in test [3] was > 100 µM each time. Also, the TGI in test [1], in test [2] and in test [3] was > 100 µM throughout.
With `COc1cc2ncn(-c3cc(OCc4ccccc4C(F)(F)F)c(C(C)=O)s3)c2cc1OC`, the GI50 in test [1] is > 25 µM; in test [2], 19.3 µM; in test [3] it was 24.2 µM; in test [4], > 25 µM. The TGI in test [1], in test [2], in test [3] and in test [4] was > 25 µM each time.
Turning to `Cc1nnc(-c2ccc(C)c(-c3ccc(C(=O)NCc4ccc(Cl)cc4)cc3)c2)o1`, the GI50 in test [1] is 16.2 µM; in test [2], 10.7 µM; in test [3], 10.4 µM; in test [4] it was 9.04 µM. The TGI in test [1], in test [2], in test [3] and in test [4] was > 25 µM in each case.
Regarding `C=C1C(=O)OC2CC3(C)CCCC(C)C3=CC12` (stereo not given), the TGI in test [1] came out at 14.7 µM; in test [2], 36.6 µM; in test [3] it was 26.9 µM; in test [5] it was 11.4 µM; in test [4] it was 56.7 µM.
As to `CC(O[Si](c1ccccc1)(c1ccccc1)C(C)(C)C)[C@H](NC(=O)OC(C)(C)C)C(=O)O` (stereo not given in full), the TGI in test [2] was > 100 µM; in test [5], 97.1 µM; in test [4], > 100 µM.
For `COc1ccc(CNc2cnc3cc(N)cc(N)c3n2)cc1`, the GI50 in test [1] is 19.4 µM; in test [2], 24.2 µM; in test [3], 14.2 µM; in test [4], 25.5 µM. Further, the TGI in test [1] was 49.2 µM; in test [2], 69.3 µM; in test [3] it was 29.6 µM; in test [4], 76.2 µM.
Consider `CC(C)(C)NC/C(=C\c1ccccc1)C(=O)c1ccccc1`, for which the GI50 in test [1] is 2.68 µM; in test [2], 6.11 µM; in test [3], 2.72 µM; in test [4], 2.31 µM. In addition, the TGI in test [1] was 9.63 µM; in test [2] it was 60.7 µM; in test [3], 8.12 µM; in test [4], 10.8 µM.
`O=C(Nc1cccc(Cl)c1)c1cc(N=Nc2ccc([N+](=O)[O-])cc2Cl)ccc1O`: the GI50 in test [1] is 1.43 µM; in test [2] it was 1.95 µM; in test [3], 2.03 µM; in test [4] it was 2.27 µM. The TGI in test [1] was 8.72 µM; in test [2], 7.71 µM; in test [3], 5.27 µM; in test [4], 5.93 µM.
Regarding `Cc1cc(NNC(=O)c2ccccc2O)nc(Nc2nc3ccccc3o2)n1`, the GI50 in test [1] is 1.83 µM; in test [2], 3.26 µM; in test [3], 0.71 µM; in test [4], 1.3 µM. Further, the TGI in test [1] came out at 18.3 µM; in test [2], 37.5 µM; in test [3], 16.2 µM; in test [4], 7 µM.
For `C=C1CCC2C3(C)COC(c4ccc(Cl)cc4)OC3CCC2(C)C1/C=C/C1=CCOC1=O` (stereo not given), the GI50 in test [1] is 24 µM; in test [2], 11.5 µM; in test [3] it was 6.68 µM; in test [4] it was 4.98 µM. Besides, the TGI in test [1] was > 100 µM; in test [2], 42.5 µM; in test [3], > 100 µM; in test [4] it was > 100 µM.
Take `C1CCN2CC3CCCN4CCCC(C2C1)C34` (stereo not given): the TGI in test [1], in test [2], in test [3], in test [5] and in test [4] was > 100 µM in each case.
`CSc1ccc(C2=NN(C(C)=O)C(c3ccc(F)cc3)C2)cc1` (stereo not given): the GI50 in test [1] was 23.8 µM; in test [2] it was 20.8 µM; in test [3], 10.7 µM; in test [4], 16.4 µM. Also, the TGI turned out to be 61.7 µM in test [1], 49.7 µM in test [2], 28.6 µM in test [3] and 32.9 µM in test [4].
For the compound `NNC(=S)Nc1cccc(Cl)c1`, the TGI in test [1], in test [2], in test [3], in test [5] and in test [4] was > 100 µM throughout.
For the compound `COC(=O)c1ccc2c(c1)c1c(C)c3ccncc3c(C)c1n2C`, the GI50 in test [1] was 0.313 µM; in test [2], 0.561 µM; in test [3] it was 0.391 µM; in test [4], 0.411 µM. Moreover, the TGI in test [1] is > 100 µM; in test [2], > 100 µM; in test [3] it was > 100 µM; in test [4], 62.7 µM.
Take `COc1ccc2c(c1)N(CCO)C1=C(C(=O)OC1)C2c1ccccc1` (stereo not given): the GI50 in test [1] is 1.74 µM; in test [2], 1.39 µM; in test [3] it was 5.99 µM; in test [4], 0.992 µM. The TGI came to 6.01 µM in test [1], 4.99 µM in test [2], 41.7 µM in test [3] and 2.66 µM in test [4].
In the case of `COc1cc(-c2ccc(NC(=O)NC3CC3)c(OC)c2)ccc1NC(=O)NC1CC1`, the GI50 in test [1] is 6.89 µM; in test [3] it was 11.6 µM; in test [4] it was > 43.6 µM. Further, the TGI was > 100 µM in test [1], > 28.6 µM in test [2], > 100 µM in test [3] and > 100 µM in test [4].
For `CC(O)CN1c2ccccc2Sc2ccc(Cl)cc21` (stereo not given), the TGI in test [1], in test [2], in test [3], in test [5] and in test [4] was > 10 µM each time.
On to `CCCN1C(=O)/C(=C/c2ccc(O)cc2)SC1=Nc1ccc(OC)cc1`, for which the GI50 is 10.3 µM in test [1], 4.48 µM in test [2], 14.1 µM in test [3] and 14 µM in test [4]. Besides, the TGI in test [1] amounted to 29.5 µM; in test [2] it was 23.3 µM; in test [3] it was 31 µM; in test [4], 29.5 µM.
For the compound `COC(=O)C(=O)C(C(=O)C(=O)Nc1ccc(C)cc1)c1nc2ccc(C(=O)c3ccccc3)cc2[nH]c1=O` (stereo not given), the TGI in test [2], in test [3], in test [5] and in test [4] was > 100 µM throughout.
As for `CO[C@@H]1[C@H]2[C@@H](C)c3ccoc3C[C@@H]2[C@@]2(C)CC[C@H](OC(=O)c3ccccc3)[C@](C)(C(=O)O)[C@]2(O)[C@@H]1OC(=O)c1ccccc1`, the GI50 was 12.1 µM in test [1], 24.8 µM in test [2], 6.07 µM in test [3] and 11.7 µM in test [4]. For the same compound, the TGI was > 50 µM in test [1], > 50 µM in test [2], 16 µM in test [3] and 35.3 µM in test [4].
On to `O=c1c(-c2ccc(O)cc2)coc2cc(OC3OC(CO)C(O)C(O)C3O)cc(O)c12` (stereo not given), for which the TGI was > 100 µM in test [1]; > 100 µM in test [2]; > 100 µM in test [3]; > 100 µM in test [5]; > 10 µM in test [4].
As to `Cc1cn2c(/C=C3/C(=O)Nc4ccc(F)cc43)c(C)nc2s1`, the GI50 in test [1] is 9.58 µM; in test [2], 7.98 µM; in test [3], 12.1 µM; in test [4], 1.7 µM. Moreover, the TGI in test [1] is 32.3 µM; in test [2], 28.2 µM; in test [3], > 50 µM; in test [4], 7.26 µM.
For `CCCCCCN(C)Cc1ccc(OCCOc2ccc(CN(C)CCCCCC)cc2)cc1`, the GI50 is 2.57 µM in test [1], 1.47 µM in test [2], 1.22 µM in test [3] and 1.38 µM in test [4]. In addition, the TGI amounted to 10.5 µM in test [1], 3.97 µM in test [2], 2.84 µM in test [3] and 3.16 µM in test [4].
With `O=C(Nc1nc(-c2ccc(Cl)cc2)nc2c1sc(=S)n2-c1ccccc1)C(F)(F)F`, the GI50 in test [1] was 4.32 µM; in test [2], 3.37 µM; in test [3], 3.64 µM; in test [4], 3.58 µM. Besides, the TGI in test [1] is 25.3 µM; in test [2], 9.7 µM; in test [3], 12.5 µM; in test [4], 19.3 µM.
Consider `O=C(NNC(=S)Nc1ccccc1)c1ccccn1`, for which the GI50 is 3.8 µM in test [1], 23.7 µM in test [2], 3.85 µM in test [3] and 2.84 µM in test [4]. Further, the TGI in test [1], in test [2], in test [3] and in test [4] was > 100 µM throughout.
Turning to `COc1ccc(-c2nc(-c3cnccn3)n(COCCO)n2)cc1`, the TGI in test [1], in test [3], in test [5] and in test [4] was > 100 µM throughout.
For the compound `CC[C@@H](C)Nc1cc(C(=O)NC2CC3CCC(C2)N3c2ccc(C(=O)C3CC3)cn2)c(C)cc1C(N)=O` (stereo not given in full), the GI50 in test [1] was 0.0663 µM; in test [2], 0.186 µM; in test [3], 0.0538 µM; in test [4], 1.06 µM. In addition, the TGI in test [1] is > 62.9 µM; in test [2] it was > 100 µM; in test [3] it was > 100 µM; in test [4], > 100 µM.
Regarding `COc1ccc2c(c1)C(=O)c1c-2n(CCCN)c(=O)c2cc(OC)c(OC)cc12`, the GI50 in test [1] is < 0.01 µM; in test [2], 2.2 µM; in test [3], 0.57 µM; in test [4] it was 0.405 µM. In addition, the TGI in test [1] came to 0.153 µM; in test [2], 4.81 µM; in test [3] it was 1.86 µM; in test [4], 5.4 µM.
With `COC(=O)C1=C(O)[C@H](C(=O)OC)[C@]2(O)[C@@H](C(=O)OC)[C@H]1C[C@@H](c1ccc(OC(=O)/C=C/c3ccco3)cc1)[C@@H]2C(=O)OC`, the GI50 in test [2] is > 100 µM; in test [4], 12.3 µM. Moreover, the TGI in test [2] is > 100 µM; in test [4], 32.2 µM.
On to `O=C(Nc1cccnc1)c1ccc2ccc3ccc(C(=O)Nc4cccnc4)nc3c2n1`, for which the GI50 in test [1] was 0.195 µM; in test [2] it was 0.434 µM; in test [3], 0.226 µM; in test [4] it was > 100 µM. Also, the TGI in test [1], in test [2], in test [3] and in test [4] was > 100 µM throughout.
As to `O=C(Cn1c(C(=O)c2ccccc2)nc2ccccc21)c1ccc(F)cc1`, the GI50 in test [1] was > 48.7 µM; in test [2], 11.5 µM; in test [3] it was 15.7 µM; in test [4], 3.47 µM. Further, the TGI was > 100 µM in test [1], > 100 µM in test [2], > 100 µM in test [3] and > 29.4 µM in test [4].
Turning to `CCOc1c(C#N)c2c(N)ncnc2n1C1OC(CO)C(O)C1O` (stereo not given), the GI50 is 2.72 µM in test [1], 2.12 µM in test [2], 6.15 µM in test [3] and 4.51 µM in test [4]. The TGI in test [1] is 11.8 µM; in test [2], 14 µM; in test [3], > 82.9 µM; in test [4], > 100 µM.
For the compound `CN1CCN(Cc2ccc(NC(=O)c3cncc(C#Cc4cnn5ccccc45)c3)cc2C(F)(F)F)CC1`, the GI50 was 1.17 µM in test [1], 0.735 µM in test [2], 0.608 µM in test [3] and 1.4 µM in test [4]. Moreover, the TGI in test [1] is 3.95 µM; in test [2], 2.91 µM; in test [3], 3.05 µM; in test [4] it was 5.51 µM.
Consider `CC[C@]12C=CCN3CC[C@@]4(c5ccc(OC)cc5N(C)[C@H]4[C@@](O)(C(=O)OC)[C@@H]1OC(=O)CCC(=O)N[C@H](Cc1c[nH]c4ccccc14)C(=O)OC)[C@@H]32`, for which the GI50 was 4.44 µM in test [1], 5.52 µM in test [2], 2.83 µM in test [3] and 11.3 µM in test [4]. The TGI in test [1] worked out at 20.3 µM; in test [2] it was 28.7 µM; in test [3], 9.54 µM; in test [4] it was 37.8 µM.
For the compound `CCOC(=O)c1cc(-c2ccc(OC)c(OC)c2)[nH]c1N/N=C/c1c(Cl)cccc1Cl`, the GI50 in test [1] is 2.38 µM; in test [2], 2.71 µM; in test [3], 2.9 µM; in test [4], 1.15 µM. Further, the TGI is 8.5 µM in test [1], 18.8 µM in test [2], 8.84 µM in test [3] and 4.53 µM in test [4].

Source of the values: PubChem BioAssay (NCI).
